This passage reports EC50 results from PubChem BioAssay AID1769 (NMMLSC, 2009).

This experiment addresses glutathione S-transferase (Schistosoma japonicum GST tag binding GSH beads). As to the kind of experiment: GST–glutathione bead interaction interference profiling – biochemical, multiplex beads, flow cytometry, profiling panel (AID 1769).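 Further: target is a GST and green fluorescent protein fusion captured on glutathione beads.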 Particulars: flow cytometry fluorescence.

A word on the EC50: it is the concentration that produces a half-maximal response. Regarding `Cc1ccc2c(c1)c1nnc(SCC(=O)N3CCCc4ccccc43)nc1n2CC(=O)O`, the EC50 is 69.6 µM.
On to `NS(=O)(=O)c1ccc(Nc2nc(-c3ccc(O)cc3O)cs2)cc1`, for which the EC50 is 2.29 µM.
For the molecule `CCOc1cccc(Nc2cc3n(c(=O)n2)CCc2cc(OC)c(OC)cc2-3)c1`, the EC50 was 64.5 µM.
On to `COc1cc(/C=C2/SC(=Nc3ccc(O)cc3)NC2=O)cc(OC)c1O`, for which the EC50 is 0.974 µM.
Then `CCCc1nc2oc3c(=O)[nH]cnc3c2c2c1CCCC2`, with 2.05 µM; and `O=C(O)c1cc(C(=O)O)cc(-c2ccc(/C=c3/sc4nc5ccccc5n4c3=O)o2)c1`, with 11.9 µM.
For `COc1cccc2cc(-c3ccnc(=S)[nH]3)oc12`, the EC50 was 28.8 µM.
`CCOc1ccc2c(c1)c(N=NC(=N)N)c(O)n2C`: the EC50 is 25.6 µM.
Consider `O=C(Nc1cc(S(=O)(=O)Nc2ccccc2Cl)ccc1O)c1sc2cc(Cl)ccc2c1Cl`, for which the EC50 was 3.66 µM.
For `N=c1oc2ccc3ccccc3c2cc1-c1nc(-c2ccccc2)cs1` the value was 1.4 µM; for `O=S1(=O)N=C(N(CCO)/N=C/c2ccccc2)c2ccccc21`, 51.9 µM.
Consider `CSc1nc(Cc2ccccc2)cc(=O)[nH]1`, for which the EC50 is 31.3 µM.
In the case of `Cc1cc2[nH]c3c(c[n+](C)c4ccccc34)c2cc1C`, the EC50 is 9.45 µM.
Then `Nc1c(S(=O)(=O)c2cccs2)c2nc3ccccc3nc2n1/N=C/c1cccc(O)c1`, with 0.355 µM.
Then `O=C(OCC1O[C@@H](OC(=O)c2cc(O)c(O)c(O)c2)[C@@H](OC(=O)c2cc(O)c(O)c(O)c2)[C@@H](OC(=O)c2cc(O)c(O)c(O)c2)[C@@H]1OC(=O)c1cc(O)c(O)c(O)c1)c1cc(O)c(O)c(O)c1` (stereo partly specified), with 0.951 µM; and `O=[N+]([O-])c1ccc2c(c1)c(-c1ccccc1)nc1nncn12`, with 3.04 µM; and `O=C(CSc1ccccc1)Nc1ccc(C(=O)Nc2cccc(O)c2)cc1`, with 1.9 µM.
Regarding `Cc1c(CCC(=O)O)c(=O)oc2cc3occ(-c4ccc(F)cc4)c3cc12`, the EC50 is 70.5 µM.
On to `O=C(O)CC/C(=C\c1ccc(N2CCCC2)c([N+](=O)[O-])c1)c1nc2ccccc2s1`, for which the EC50 was 37 µM.
In the case of `CC(=O)Oc1ccc2c(c1)Oc1cc(OC(C)=O)ccc1C21OC(=O)c2ccccc21`, the EC50 is 1.51 µM.
On to `CN(/N=C/C=C/c1ccccc1)C1=NS(=O)(=O)c2ccccc21`, for which the EC50 is 6.02 µM.
With `Cc1ccc(O)c(N=Cc2cc(Cc3ccccc3)cc([N+](=O)[O-])c2O)c1`, the EC50 was 8.29 µM.
For `COc1cccc(C2CC(c3ccccc3)Nc3ncnn32)c1` (stereo unspecified), the EC50 was 6.49 µM.
With `CCn1cc(C(=O)O)c(=O)c2cc(F)c(N/N=C/c3ccccc3[N+](=O)[O-])cc21`, the EC50 is 2.67 µM.
As to `O=C(CNC(=O)Cc1ccccc1)N=Nc1c(O)n(Cc2ccc3c(c2)OCO3)c2ccccc12`, the concentration giving a half-maximal response (EC50) was 12 µM.
As for `COc1ccc(/C=C(/C#N)C(=O)Nc2ccc(O)cc2)cc1C(=O)O`, the EC50 was 16.4 µM.
On to `O=c1nc2c(O)cccn2c2c1c(=O)[nH]c1ccccc12`, for which the EC50 was 2.6 µM.
Consider `Cc1ccc(-c2csc3nc4c5ccccc5c(NCCCN5CCOCC5)nn4c(=O)c23)cc1`, for which the EC50 is 0.346 µM.
For `COc1cc2c(cc1OC)-c1cc(NC3CCCCCCC3)nc(=O)n1CC2` the value was 20.5 µM; for `NC(=S)N=Nc1c(O)[nH]c2c(Br)cc(Br)cc12`, 69.1 µM; for `Fc1cccc(Nc2ncnc3[nH]ncc23)c1`, 45.1 µM.
For `Nc1c([N+](=O)[O-])cc(-c2cnc[nH]2)cc1[N+](=O)[O-]` the value was 0.391 µM.
For `N#Cc1c(Nc2ccccc2)c(/C=N/N=C/c2ccccc2)c[nH]c1=O` the value was 4.1 µM; for `O=C1Nc2ccc(Br)cc2C12NNc1ccccc1O2` (stereo unspecified), 2.38 µM.
Turning to `COc1ccc(N/C=C/c2nc(SC)nnc2C)cc1`, the EC50 is 2.76 µM.
With `COc1cc2c(cc1OC)-c1cc(NC3CCCCCC3)nc(=O)n1CC2`, the EC50 was 21 µM.
Regarding `COc1cc(C(=S)NCc2ccccc2)cc(Br)c1O`, the EC50 is 53.7 µM.
Consider `COc1cc2ccccc2cc1C(=O)NC(=S)Nc1cccc(C(=O)O)c1`, for which the EC50 was 9.3 µM.
As for `Cc1cc2nc3c(=O)[nH]c(=O)[nH]c3nc2c([N+](=O)[O-])c1N`, the EC50 was 1.18 µM.
For `COc1ccc(-c2c3c(nc4sc5c(=O)[nH]c(C)nc5c24)CCC3)cc1` the value was 3.74 µM; for `COc1ccc2o/c(=N/NC(=O)c3cccs3)c(C(N)=O)cc2c1`, 7.29 µM; for `CCN1/C(=C/c2ccc3cc(C)ccc3[n+]2C)Sc2ccc3sccc3c21`, 21 µM.
Take `Cc1ccc(Nc2nc(-c3c(C)nc4ncccn34)cs2)cc1`: the EC50 is 34.8 µM.
For `COC(=O)COc1ccc(/C=N/NC(=O)c2ccc(N(Cc3ccccc3)S(C)(=O)=O)cc2)cc1` the value was 4.09 µM; for `CCOC(=O)c1cc(C(=O)OCC)c(=O)[nH]c1N1CCCC1`, 35.9 µM.
On to `O=C(Nc1cccc(-c2nnc(-c3ccco3)o2)c1)c1ccccc1`, for which the EC50 was 40.8 µM.
`CCC(C)N1C(=O)/C(=C/c2c(NCCCOC(C)C)nc3c(C)cccn3c2=O)SC1=S` (stereo unspecified): the EC50 is 0.201 µM.
With `COc1ccc(/C=N/NC(=O)Nc2cccc3nsnc23)cc1OC`, the EC50 is 0.682 µM.
For `O=c1c2c(-c3ccccc3)csc2nc2c3ccccc3c(NCCN3CCOCC3)nn12`, the EC50 is 1.84 µM.
Regarding `O=c1[nH]c(=O)c2nnc(N/N=C\c3ccc(O)cc3)nc2[nH]1`, the EC50 is 3.79 µM.
For the molecule `Cc1cc2nc3c(=O)n(C4CCCCC4)c(=O)[nH]c3nc2cc1N`, the EC50 is 6.99 µM.
For `O=c1c2ccccc2nc2ccc(NCc3cccs3)nn12`, the EC50 is 6.79 µM.
For `Cc1cc(=O)[nH]c2c(N=Nc3ccc(O)cc3)c(N)nn12` the value was 1.4 µM; for `CCOc1ccccc1C(=O)Nc1cccc(-c2ccc3nncn3n2)c1`, 1.96 µM.
With `COc1ccc(Nc2nc(-c3c(C)nc4ncccn34)cs2)cc1`, the EC50 is 8.39 µM.
As to `O=C(/C=C/c1ccc(N2CCC(c3ccccc3)=N2)cc1)c1ccccc1`, the EC50 is 0.34 µM.
In the case of `N#CCc1c(C#N)c(N)nc(N2CCN(C=O)CC2)c1C#N`, the EC50 is 15.7 µM.
`Cc1cc(/C=c2\sc3nc4ccccc4n3c2=O)c(C)n1-c1ccc(C(=O)O)cc1`: the EC50 was 47.5 µM.
For `NS(=O)(=O)c1ccc(CCN2C(=O)/C(=C\c3ccc(Cl)cc3)SC2=S)cc1` the value was 6.03 µM; for `CC(C)c1cc(NCc2ccccn2)n2c(nc3ccccc32)c1C#N`, 2.82 µM; for `COc1ccc(-c2csc(C3=C(O)CN(C(C)C)C3=N)n2)cc1OC`, 87.3 µM.
Consider `Nc1nc2c(c(=O)[nH]1)C(c1cccc3ccccc13)C1=C(N2)c2ccccc2C1=O` (stereo unspecified), for which the EC50 is 2.59 µM.
Take `Oc1ccc2ccccc2c1/C=N/Nc1nnc(-c2ncc[nH]2)c2ccccc12`: the EC50 was 1.96 µM.
As to `COc1ccc(N=C2S/C(=C\c3ccc(N4CCOCC4)o3)C(=O)N2CCc2c[nH]c3ccccc23)cc1`, the EC50 is 0.0269 µM.
Consider `CCCCNc1nc(=S)[nH]c2cc(OC)c(OC)cc12`, for which the EC50 is 10.9 µM.
For the molecule `CC(C)NC(=S)N=Nc1c(O)[nH]c2ccc([N+](=O)[O-])cc12`, the EC50 is 1.43 µM.
With `COc1cc2c(cc1OC)-c1cc(NCc3ccccn3)nc(=O)n1CC2`, the EC50 was 1.96 µM.
Turning to `COCCCNc1nc(=S)[nH]c2cc(OC)c(OC)cc12`, the EC50 is 15.2 µM.
On to `N#Cc1c2nc3ccccc3nc2n2cc(NC(=O)c3ccc(F)cc3)ccc12`, for which the EC50 is 0.95 µM.
Then `O=c1[nH]c(N/N=C/c2ccc(O)cc2)nc2ccccc12`, with 7.68 µM; and `Cc1sc2nc3c(SC(C)C(=O)O)cc(C(=O)c4ccccc4O)cn3c(=O)c2c1C` (stereo unspecified), with 92.7 µM; and `O=C(CSc1ccc2nnc(-c3ccccn3)n2n1)Nc1nccs1`, with 13 µM.
For the molecule `COCCN1C(=O)/C(=C/c2ccc(N3CCCC3)cc2C)SC1=S`, the EC50 is 1.69 µM.
On to `O=C(NCc1cccs1)c1cccn2c(=O)c3sccc3nc12`, for which the EC50 is 0.664 µM.
Then `CC(C)(C)NC(=O)CCN(/N=C/c1ccc([N+](=O)[O-])o1)C1=NS(=O)(=O)c2ccccc21`, with 3.39 µM; and `CCOc1ccc(CCNc2ccc3nnc(-c4ccccc4)n3n2)cc1OCC`, with 2.29 µM.
Take `O=C1/C(=C/c2ccc(N3CCOCC3)o2)SC(=Nc2ccccc2)N1CCc1c[nH]c2ccccc12`: the EC50 is 0.0697 µM.
`COc1cc(/C=N/NC(=O)CN(Cc2ccccc2)S(=O)(=O)c2ccc3c(c2)OCCO3)ccc1O`: the EC50 was 20.3 µM.
As to `CCOC(=O)c1cc2c(N)c(C(=O)c3ccc(Br)cc3)sc2[nH]c1=O`, the EC50 is 0.574 µM.
Regarding `CCCCn1c(O)c(/C=C/C=C/C=Nc2ccccc2)sc1=S`, the EC50 is 0.576 µM.
Then `COc1cc2[nH]c(=S)nc(Nc3ccc(NC(C)=O)cc3)c2cc1OC`, with 2.91 µM; and `Oc1ccc(/C=N/NC(=S)N/N=C/c2ccc(O)cc2)cc1`, with 13.4 µM; and `O=c1c2ccccc2nc2c3ccccc3c(NCc3ccccn3)nn12`, with 3.76 µM.
Take `COc1ccc(C(=O)N/N=c2\oc3ccccc3cc2C(N)=O)cc1`: the EC50 was 4.62 µM.
Consider `CCC1CCCCN1S(=O)(=O)c1ccc(NC(=O)CSc2ncccc2C(=O)O)cc1` (stereo unspecified), for which the EC50 was 10.7 µM.
`O=C(Cc1ccc(Nc2nc(=S)[nH]c3ccccc23)cc1)NC1CCCCC1`: the EC50 is 6.65 µM.
Consider `Cc1cc(N/N=C/c2ccc(O)cc2O)nc(-n2nc(C)cc2C)n1`, for which the concentration for a half-maximal effect (EC50) is 0.831 µM.
As to `COc1ccc(/C=N/n2c(N)c(S(=O)(=O)c3cccs3)c3nc4ccccc4nc32)cc1OC`, the EC50 was 0.612 µM.
As for `C/C(=N\Nc1ccc(S(N)(=O)=O)cc1[N+](=O)[O-])c1ccc2c(c1)OCO2`, the EC50 was 1.4 µM.
Regarding `COc1ccc(-c2cc(-c3ccc(O)cc3)nc(N)c2C#N)cc1OC`, the EC50 is 11.5 µM.
For the molecule `COc1ccc(OC)c(Nc2nc(-c3sc(N)nc3C)cs2)c1`, the EC50 is 26.9 µM.
`Cc1ccc(/C=N/N(C)C2=NS(=O)(=O)c3ccccc32)o1`: the EC50 is 7.42 µM.
For `COc1ccc2c(C)nc(N/C(N)=N/S(=O)(=O)c3ccc(C)cc3)nc2c1` the value was 7.51 µM; for `CCOc1cc(/C=N/NC(=O)c2cc(-c3cccnc3)nc3ccccc23)ccc1O`, 8.65 µM.
With `O=C(N/N=C(\c1ccccc1)c1ccccn1)c1cccc([N+](=O)[O-])c1`, the EC50 is 38.1 µM.
For `CC(C)(C)c1ccc(C(=O)CC(Sc2ccc(Cl)cc2)C(=O)O)cc1` (stereo unspecified) the value was 3.51 µM.
